Results: patent US7691855B2, “Phenyl-[4-(3-phenyl-1h-pyrazol-4-yl)-pyrimidin-2-yl)-amine derivatives” (Novartis AG, priority 2002, dated 2010)

Compound | melting point [°C]
Cc1ccc(-c2n[nH]cc2-c2ccnc(Nc3ccc(C(=O)N4CCN(C)CC4)cc3)n2)cc1 [Example 59, (4Methyl-piperazin-1-yl)-{4-[4-(3-p-tolyl-1H-pyrazol-4-yl)-pyrimidin-2-ylamino]-phenyl}-methanone] | 264
COc1ccc(Nc2nccc(-c3c[nH]nc3-c3ccc(Cl)cc3)n2)cc1OC [Example 68, {4-[3-(4-Chloro-phenyl)-1H-pyrazol-4yl]-pyrimidin-2-yl}-(3,4-dimethoxy-phenyl)-amine] | 261
Cc1ccc(-c2nn(C)cc2-c2ccnc(Nc3ccc(CN4CCN(C)CC4)cc3)n2)cc1 [Example 66, [4-(4-Methyl-piperazin-1-ylmethyl)-phenyl]-[4-(1-methyl-3-p-tolyl-1H-pyrazol-4-yl)-pyrimidin-2-yl]-amine] | 151
Cc1cccc(-c2n[nH]cc2-c2ccnc(Nc3ccc(N4CCN(C)CC4)cc3)n2)c1C [Example 50, {4-[3-(2,3-Dimethyl-phenyl)-1H-pyrazol-4-yl]-pyrimidin-2-yl}-[4-(4-methyl-piperazin-1-yl)phenyl]-amine] | 305
CCN1CCN(Cc2ccc(Nc3nccc(-c4c[nH]nc4-c4ccc(Cl)cc4)n3)cc2)CC1 [Example 114, {4-[3-(4-Chloro-phenyl)-1H-pyrazol-4yl]-pyrimidin-2-yl}-[4-(4-ethyl-piperazin-1-ylmethyl)-phenyl]-amine] | 247
COc1cccc(Nc2nccc(-c3cn(CC4CCN(C)CC4)nc3-c3ccc(Cl)cc3)n2)c1 [Example 107, {4-[3-(4-Chloro-phenyl)-1-(1methyl-piperidin-4-ylmethyl)-1H-pyrazol-4-yl]-pyrimidin-2-yl}-(3-methoxy-phenyl)-amine] | 65
Clc1ccc(-c2n[nH]cc2-c2ccnc(Nc3ccc(N4CCNCC4)cc3)n2)cc1 [Example 122, {4-[3-(4-Chloro-phenyl)-1H-pyrazol-4yl]-pyrimidin-2-yl}-(4piperazin-1-yl-phenyl)-amine] | 214
CN1CCC(COc2cccc(Nc3nccc(-c4cn(C)nc4-c4ccc(Cl)cc4)n3)c2)CC1 [Example 112, {4-[3-(4-Chloro-phenyl)-1-methyl-1H-pyrazol-4-yl]-pyrimidin-2-yl}-[3-(1-methyl-piperidin-4-ylmethoxy)-phenyl]-amine] | 138
CCN1CCN(c2ccc(Nc3nccc(-c4c[nH]nc4-c4ccc(Cl)cc4)n3)cc2)CC1 [Example 121, {4-[3-(4-Chloro-phenyl)-1H-pyrazol-4yl]-pyrimidin-2-yl}-[4-(4-ethyl-piperazin-1-yl)-phenyl]-amine] | 268
Cc1ccc(-c2c(-c3ccnc(Nc4ccc(N5CCN(C)CC5)cc4)n3)cnn2C)cc1 [Example 63, [4-(4-Methyl-piperazin-1-yl)-phenyl]-[4-(1-methyl-5-p-tolyl-1H-pyrazol-4-yl)-pyrimidin-2-yl]-amine] | 261
CCN1CCN(Cc2ccc(Nc3nccc(-c4cn(C)nc4-c4ccc(C)cc4)n3)cc2)CC1 [Example 117, [4-(4-Ethyl-piperazin-1-ylmethyl)-phenyl]-[4-(1-methyl-3-p-tolyl-1H-pyrazol-4-yl)-pyrimidin-2-yl]-amine] | 88
COc1cc(Nc2nccc(-c3cn(CCN(C)C)nc3-c3ccc(Cl)cc3)n2)cc(OC)c1OC [Example 70, {4-[3-(4-Chloro-phenyl)-1-(2-dimethylamino-ethyl)-1H-pyrazol-4-yl]-pyrimidin-2-yl}-(3,4,5-trimethoxy-phenyl)-amine] | 150
CN1CCC(n2ncc(-c3ccnc(Nc4ccc(CN5CCN(C)CC5)cc4)n3)c2-c2ccc(Cl)cc2)CC1 [Example 81, {4-[5-(4-Chloro-phenyl)-1-(1-methyl-piperidin-4yl)-1H-pyrazol-4yl]-pyrimidin-2-yl}-[4-(4methyl-piperazin-1-ylmethyl)-phenyl]-amine] | 180
